This is an account of results in PubChem BioAssay (NCI).

Test systems include NCI-H23 lung; MOLT-4 leukemia; SK-MEL-2 melanoma; DU-145 prostate; HOP-62 NSCLC; UO-31 renal; NCI-H522 lung; BT-549 breast; TK-10 renal; SF-268 CNS; SN12C renal; 786-0 renal.
Holding throughout (assay): NCI-60 cell line screen, 48 h

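96-well plates; 48 h exposure; 5 concentrations. Endpoints by linear interpolation between flanking doses. Not reached: highest tested concentration assigned. TGI denotes the concentration required for complete inhibition of growth.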 Where a SMILES comes first, the peptide text is derived from it.

With `COC(=O)Cn1c(=O)oc2nc(-c3ccccc3)cc(C(F)(F)F)c21`, the TGI in the assay on NCI-H23 lung is more than 100 µM; in the assay on MOLT-4 leukemia, 71.3 µM; in the assay with SK-MEL-2 melanoma, more than 100 µM; in the assay on DU-145 prostate, more than 100 µM; with HOP-62 NSCLC it was more than 100 µM; with UO-31 renal it was more than 100 µM. Besides, the TGI in the assay on NCI-H522 lung, with BT-549 breast, in the assay with TK-10 renal, in the assay with SF-268 CNS, in the assay on SN12C renal and in the assay with 786-0 renal was more than 100 µM in each case.
As to `CCC1CCC2c3c([nH]c4ccc(C)cc34)C3C(=O)N(N(C)C)C(=O)C3C2C1` (configuration not stated), the TGI in the assay with NCI-H23 lung, in the assay with MOLT-4 leukemia, with SK-MEL-2 melanoma, in the assay on DU-145 prostate, in the assay with HOP-62 NSCLC and with UO-31 renal was more than 100 µM in each case. The TGI in the assay with NCI-H522 lung was 2.68 µM; in the assay on BT-549 breast, more than 100 µM; in the assay with TK-10 renal it was more than 100 µM; with SF-268 CNS, more than 59.8 µM; in the assay on SN12C renal it was more than 100 µM; in the assay on 786-0 renal it was more than 60.1 µM.
Consider `NC(=O)CCC(NC(=O)c1c2ccccc2nc2ccccc12)C(=O)O` (configuration not stated), for which the TGI in the assay with NCI-H23 lung, in the assay with MOLT-4 leukemia, in the assay on SK-MEL-2 melanoma, in the assay with DU-145 prostate, in the assay on HOP-62 NSCLC and with UO-31 renal was more than 100 µM each time. Also, the TGI with NCI-H522 lung, with BT-549 breast, in the assay with TK-10 renal, with SF-268 CNS, in the assay with SN12C renal and in the assay on 786-0 renal was more than 100 µM in each case.
In the case of `Cc1ccsc1C(=S)Nc1ccc(Cl)c(/C=N/OC(C)C)c1`, the TGI in the assay on NCI-H23 lung was more than 100 µM; in the assay with MOLT-4 leukemia, 35.2 µM; in the assay on SK-MEL-2 melanoma, more than 100 µM; in the assay on DU-145 prostate it was more than 100 µM; in the assay with HOP-62 NSCLC, more than 100 µM; in the assay with UO-31 renal, more than 100 µM. Further, the TGI in the assay on NCI-H522 lung, with BT-549 breast, in the assay on TK-10 renal, in the assay with SF-268 CNS, in the assay with SN12C renal and with 786-0 renal was more than 100 µM throughout.
Take `Cc1cc2c(cc1Cl)SC(NNC1=NCCN1)=NS2(=O)=O`: the TGI in the assay on NCI-H23 lung, in the assay on MOLT-4 leukemia, in the assay on SK-MEL-2 melanoma, in the assay on DU-145 prostate, in the assay with HOP-62 NSCLC and with UO-31 renal was more than 10 µM in each case. The TGI in the assay with NCI-H522 lung, in the assay with BT-549 breast, in the assay with TK-10 renal, with SF-268 CNS, in the assay with SN12C renal and in the assay with 786-0 renal was more than 10 µM in each case.
With `O=c1[nH]nc(Cc2ccccc2)n1/N=C/c1ccc([N+](=O)[O-])cc1`, the TGI in the assay with NCI-H23 lung, in the assay with MOLT-4 leukemia, with SK-MEL-2 melanoma, in the assay on DU-145 prostate, in the assay with HOP-62 NSCLC and in the assay with UO-31 renal was more than 100 µM in each case. Further, the TGI in the assay on NCI-H522 lung, in the assay with BT-549 breast, in the assay with TK-10 renal, in the assay with SF-268 CNS, with SN12C renal and with 786-0 renal was more than 100 µM throughout.
In the case of `Cc1ccc(C(=O)Oc2ccc(/C=C3\CCC/C(=C\c4ccc(OC(=O)c5ccc(C)cc5)cc4)C3=O)cc2)cc1`, the TGI with NCI-H23 lung, in the assay with MOLT-4 leukemia, in the assay with SK-MEL-2 melanoma, in the assay with DU-145 prostate, with HOP-62 NSCLC and in the assay with UO-31 renal was more than 100 µM in each case. Moreover, the TGI in the assay with NCI-H522 lung, in the assay on BT-549 breast, in the assay with TK-10 renal, in the assay on SF-268 CNS, with SN12C renal and with 786-0 renal was more than 100 µM in each case.
As for `CCCC(=O)OC[n+]1ccc(-c2c(COC(=O)NC(C)C)c(COC(=O)NC(C)C)c3n2CCC3)cc1`, the TGI with NCI-H23 lung, in the assay with MOLT-4 leukemia, in the assay with SK-MEL-2 melanoma, in the assay on DU-145 prostate, with HOP-62 NSCLC and in the assay with UO-31 renal was more than 100 µM throughout. In addition, the TGI in the assay with NCI-H522 lung, in the assay with BT-549 breast, with TK-10 renal, in the assay with SF-268 CNS, in the assay with SN12C renal and in the assay with 786-0 renal was more than 100 µM each time.
Take `COc1ccc(-c2nc3c(C(=O)NCCN(C)C)cccc3c3ccccc23)cc1`: the TGI with NCI-H23 lung is 19.6 µM; in the assay with MOLT-4 leukemia, 6.55 µM; in the assay on SK-MEL-2 melanoma it was 18.4 µM; with DU-145 prostate it was 17.4 µM; with HOP-62 NSCLC, 13.3 µM; with UO-31 renal, 5.16 µM. Also, the TGI in the assay with NCI-H522 lung was 8.82 µM; in the assay with BT-549 breast, 22.3 µM; in the assay on TK-10 renal, 19.8 µM; in the assay on SF-268 CNS, 24.5 µM; in the assay with SN12C renal, 16.9 µM; in the assay with 786-0 renal, 6.86 µM.
`CCC(C)C(NC(=O)C(CC(C)C)NC(=O)CNC(=O)C(NC(=O)C1CCCN1C(=O)C(CC(C)C)NC(=O)C(N)Cc1ccccc1)C(C)CC)C(=O)NC(CC(C)C)C(N)=O` (configuration not stated) (H-FLPIGLIL-NH2; configuration not given here): the TGI in the assay with NCI-H23 lung, in the assay with MOLT-4 leukemia, with SK-MEL-2 melanoma, with DU-145 prostate, in the assay with HOP-62 NSCLC and in the assay on UO-31 renal was more than 75 µM each time. In addition, the TGI with NCI-H522 lung, in the assay with BT-549 breast, in the assay on TK-10 renal, in the assay on SF-268 CNS, with SN12C renal and in the assay with 786-0 renal was more than 75 µM in each case.
In the case of `CC(=O)NC1COC(COC(=O)CCCCCCCCCCNC(=O)c2ccc([N+](=O)[O-])c3c(=O)c4ccccc4[nH]c23)C(O)C1OC(C)C(=O)NC(C(=O)NC(CCC(N)=O)C(=O)OCc1ccccc1)C(C)C` (configuration not stated), the TGI with NCI-H23 lung came out at 27.3 µM; in the assay on MOLT-4 leukemia it was 61.3 µM; with SK-MEL-2 melanoma, 28.7 µM; with DU-145 prostate, 12.3 µM; in the assay on HOP-62 NSCLC it was 24.4 µM; in the assay with UO-31 renal, 19.1 µM. In addition, the TGI is 35.4 µM with NCI-H522 lung; more than 83.1 µM in the assay on BT-549 breast; 54.4 µM with TK-10 renal; 32.8 µM in the assay on SF-268 CNS; more than 92.6 µM in the assay with SN12C renal; more than 58.6 µM in the assay on 786-0 renal.
